From ChEMBL document CHEMBL1154768 (J Med Chem, 2009)

Tests used:
[1] = target: T1, Adenosine receptor A1 (Homo sapiens, UniProt P30542); experiment: Displacement of [3H]NECA from human recombinant adenosine A1 receptor expressed in CHO cells after 60 mins by liquid scintillation counting; assay type: cell-based
T1 sequence (P30542 whole entry): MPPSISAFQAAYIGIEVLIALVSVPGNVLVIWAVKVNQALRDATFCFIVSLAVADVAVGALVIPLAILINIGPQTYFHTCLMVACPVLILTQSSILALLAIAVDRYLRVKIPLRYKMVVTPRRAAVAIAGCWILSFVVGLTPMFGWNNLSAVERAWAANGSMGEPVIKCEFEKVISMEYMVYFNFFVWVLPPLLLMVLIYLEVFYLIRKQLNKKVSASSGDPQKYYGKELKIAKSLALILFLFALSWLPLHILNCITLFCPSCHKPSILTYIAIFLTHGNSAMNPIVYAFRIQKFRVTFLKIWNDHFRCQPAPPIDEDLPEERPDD

[2] = target: T2, Adenosine receptor A2a (Homo sapiens, UniProt P29274); experiment: Displacement of [3H]CGS21680 from human adenosine A2A receptor expressed in HEK293 cells after 60 mins by liquid scintillation counting; assay type: cell-based
T2 sequence (P29274 whole entry): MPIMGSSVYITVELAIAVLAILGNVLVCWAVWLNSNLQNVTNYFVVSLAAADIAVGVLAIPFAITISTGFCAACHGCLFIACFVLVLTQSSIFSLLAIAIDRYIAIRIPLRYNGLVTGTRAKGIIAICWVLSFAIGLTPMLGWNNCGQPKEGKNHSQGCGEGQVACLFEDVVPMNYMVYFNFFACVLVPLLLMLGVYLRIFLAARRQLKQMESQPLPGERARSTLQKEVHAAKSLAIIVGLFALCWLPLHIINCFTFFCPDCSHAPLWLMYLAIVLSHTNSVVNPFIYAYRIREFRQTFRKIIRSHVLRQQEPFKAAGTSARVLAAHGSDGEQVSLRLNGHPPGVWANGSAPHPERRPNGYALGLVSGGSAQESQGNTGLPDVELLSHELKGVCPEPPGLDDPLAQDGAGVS

[3] = target: T3, Adenosine receptor A3 (Homo sapiens) (UniProt P0DMS8); experiment: Agonist activity at human recombinant adenosine A3 receptor expressed in CHO cells assessed as inhibition of forskolin-stimulated cAMP production at 10 uM treated 45 mins before forskolin challenge measured after 15 mins by radioimmunoassay relative to NECA; assay type: functional, cell-based
T3 sequence (whole entry): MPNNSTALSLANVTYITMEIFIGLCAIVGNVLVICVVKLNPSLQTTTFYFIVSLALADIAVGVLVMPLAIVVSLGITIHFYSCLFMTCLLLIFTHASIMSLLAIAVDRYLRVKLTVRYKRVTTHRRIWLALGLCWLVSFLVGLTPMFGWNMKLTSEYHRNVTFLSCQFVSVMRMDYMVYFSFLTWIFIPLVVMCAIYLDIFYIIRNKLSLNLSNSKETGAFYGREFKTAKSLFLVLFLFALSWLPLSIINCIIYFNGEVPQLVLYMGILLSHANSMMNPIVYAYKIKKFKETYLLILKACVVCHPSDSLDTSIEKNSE

[4] = target: T4, Adenosine receptor A3 (Homo sapiens, UniProt P0DMS8); experiment: Displacement of [125I]AB-MECA from human recombinant adenosine A3 receptor expressed in CHO cells after 60 mins by gamma counting
T4 sequence (P0DMS8 whole entry): T3 sequence (whole entry)

[5] = target: T5, Adenosine receptor A1 (Homo sapiens) (UniProt P30542); experiment: Inhibition of [3H]NECA binding to human recombinant adenosine A1 receptor expressed in CHO cells at 10 uM after 60 mins by liquid scintillation counting; assay type: cell-based
T5 sequence (whole entry): T1 sequence (P30542 whole entry)

[6] = target: T2, Adenosine receptor A2a; experiment: Inhibition of [3H]CGS21680 binding to human adenosine A2A receptor expressed in HEK293 cells at 10 uM after 60 mins by liquid scintillation counting; assay type: cell-based
[7] = target: T1, Adenosine receptor A1; experiment: Displacement of [3H]CCPA from human recombinant adenosine A1 receptor expressed in CHO cells after 60 mins by liquid scintillation counting; assay type: cell-based
[8] = target: T4, Adenosine receptor A3; experiment: Agonist activity at human recombinant adenosine A3 receptor expressed in CHO cells assessed as inhibition of forskolin-stimulated cAMP production treated 45 mins before forskolin challenge measured after 15 mins by radioimmunoassay relative to NECA; assay type: functional, cell-based
[9] = target: T6, Adenosine receptor A3 (Rattus norvegicus, UniProt P28647); experiment: Binding affinity to rat adenosine A3 receptor expressed in CHO cells; assay type: cell-based
T6 sequence (P28647 whole entry): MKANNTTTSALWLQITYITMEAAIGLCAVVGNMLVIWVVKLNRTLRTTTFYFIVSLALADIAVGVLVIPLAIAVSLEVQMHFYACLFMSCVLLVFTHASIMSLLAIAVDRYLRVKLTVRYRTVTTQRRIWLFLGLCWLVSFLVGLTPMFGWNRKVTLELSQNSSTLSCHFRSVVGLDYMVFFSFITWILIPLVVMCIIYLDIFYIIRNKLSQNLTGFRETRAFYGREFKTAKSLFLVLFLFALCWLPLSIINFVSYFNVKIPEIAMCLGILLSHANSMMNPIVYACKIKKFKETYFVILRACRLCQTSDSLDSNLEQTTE

[10] = species on record: Homo sapiens; experiment: Selectivity for human recombinant adenosine A3 receptor over human recombinant adenosine A2A receptor
[11] = target: Adenosine receptors; A1 & A3 (Homo sapiens) (UniProt P30542+P0DMS8); experiment: Selectivity for human recombinant adenosine A3 receptor over human recombinant adenosine A1 receptor
[12] = target: T5, Adenosine receptor A1 (Homo sapiens); experiment: Inhibition of [3H]CCPA binding to human recombinant adenosine A1 receptor expressed in CHO cells at 10 uM after 60 mins by liquid scintillation counting; assay type: cell-based
[13] = target: T3, Adenosine receptor A3 (Homo sapiens); details: CHO, 10 uM
Description: Inhibition of [125I]AB-MECA binding to human recombinant adenosine A3 receptor expressed in CHO cells at 10 uM after 60 mins by liquid scintillation counting

Structure (SMILES) | Ki [2] [nM] | Efficacy [3] [%] | Ki [4] [nM] | inhibition [5] [%] | inhibition [6] [%] | other results
CNC(=O)[C@]12C[C@@H]1[C@@H](n1cnc3c(NCc4cccc(Cl)c4)nc(C#CCCC(=O)NCCN)nc31)[C@H](O)[C@@H]2O | 550 | 96.9 | 2.5 | – | – | Ki [1]: 2320 nM
CNC(=O)[C@]12C[C@@H]1[C@@H](n1cnc3c(NCc4cccc(Cl)c4)nc(C#CCCC(=O)O)nc31)[C@H](O)[C@@H]2O | – | 106 | 61.1 | 17 | 24 | –
CNC(=O)[C@]12C[C@@H]1[C@@H](n1cnc3c(NCc4cccc(Cl)c4)nc(C#CCCCCC(=O)OC)nc31)[C@H](O)[C@@H]2O | 3540 | 85 | 11.1 | 20 | – | –
CNC(=O)[C@]12C[C@@H]1[C@@H](n1cnc3c(NCc4cccc(Cl)c4)nc(C#CCCC(=O)OC)nc31)[C@H](O)[C@@H]2O | – | 90 | 5.5 | 41 | 43 | –
CNC(=O)[C@]12C[C@@H]1[C@@H](n1cnc3c(NCc4cccc(Cl)c4)nc(Cl)nc31)[C@H](O)[C@@H]2O | 2300 | – | – | – | – | Ki [7]: 260 nM
CNC(=O)[C@]12C[C@@H]1[C@@H](n1cnc3c(NCc4cccc(Cl)c4)nc(C#CCCCCC(=O)O)nc31)[C@H](O)[C@@H]2O | – | 74.4 | 12.4 | 11 | 38 | –
CNC(=O)[C@]12C[C@@H]1[C@@H](n1cnc3c(NCc4cccc(Cl)c4)nc(C#CCCC(=O)NCCNC(=O)CCCC[C@H]4SC[C@H]5NC(=O)N[C@H]54)nc31)[C@H](O)[C@@H]2O | – | 84.5 | 36.4 | 1 | 51 | IC50 [8]: 2.5 nM
O[C@@H]1[C@H](O)[C@@H]2C[C@@H]2[C@H]1n1cnc2c(NCc3cccc(Cl)c3)ncnc21 | 4520 | 58.3 | 4.9 | – | – | Ki [1]: 1600 nM; Ki [9]: 20.3 nM
O[C@@H]1[C@H](O)[C@@H]2C[C@@H]2[C@H]1n1cnc2c(NCc3cccc(I)c3)nc(F)nc21 | 4000 | 19 | 10.7 | – | – | Ki [1]: 513 nM
NCCNC(=O)CCC#Cc1nc(NCc2cccc(Cl)c2)c2ncn([C@H]3[C@H](O)[C@H](O)[C@@H]4C[C@@H]43)c2n1 | – | 0.9 | 404 | 15 | 35 | fold change (FC) [10]: > 20; fold change (FC) [11]: > 20
CNC(=O)[C@]12C[C@H]1[C@@H](n1cnc3c(NCc4cccc(Cl)c4)nc(C#CCCCC(=O)O)nc31)[C@@H](O)[C@H]2O | – | – | – | – | 9 | –
O[C@@H]1[C@H](O)[C@@H]2C[C@@H]2[C@H]1n1cnc2c(NCc3cccc(I)c3)ncnc21 | – | 80.8 | – | – | – | Ki [1]: 839 nM
O[C@@H]1[C@H](O)[C@@H]2C[C@@H]2[C@H]1n1cnc2c(NCc3cccc(I)c3)nc(Cl)nc21 | – | 44 | – | – | – | EC50 [8]: 12 nM
CNC(=O)[C@]12C[C@@H]1[C@@H](n1cnc3c(NCc4cccc(Cl)c4)nc(C#CCCCCC(=O)NCCN)nc31)[C@H](O)[C@@H]2O | 277 | 100 | 3.4 | 47 | – | –
CNC(=O)C12C[C@@H]1[C@@H](n1cnc3c(NCc4cccc(Cl)c4)nc(C#CCCCC(=O)O)nc31)[C@H](O)[C@@H]2O (single isomer, unassigned) | – | – | – | – | – | Ki [9]: 66.5 nM
CNC(=O)[C@]12C[C@@H]1[C@@H](n1cnc3c(NCc4cccc(I)c4)ncnc31)[C@H](O)[C@@H]2O | 6200 | 100 | 2.4 | – | – | Ki [7]: 700 nM
O[C@@H]1[C@H](O)[C@@H]2C[C@@H]2[C@H]1n1cnc2c(NC3CCCC3)nc(Cl)nc21 | 1640 | 95.1 | 120 | – | – | Ki [1]: 109 nM
CNC(=O)[C@]12C[C@@H]1[C@@H](n1cnc3c(NCc4cccc(Cl)c4)nc(C#CCCC(=O)NCCNC(=O)CCCCCNC(=O)CCCC[C@H]4SC[C@H]5NC(=O)N[C@H]54)nc31)[C@H](O)[C@@H]2O | – | 107 | 57.7 | 12 | 47 | fold change (FC) [10]: 66; fold change (FC) [11]: > 170
CNC(=O)[C@]12C[C@H]1[C@@H](n1cnc3c(NCc4cccc(Cl)c4)nc(C#CCCCCC(=O)NCCN)nc31)[C@@H](O)[C@H]2O | – | 52 | 4630 | – | 5 | inhibition [12]: 36%
CNC(=O)[C@]12C[C@@H]1[C@@H](n1cnc3c(NCc4cccc(Cl)c4)nc(C#CCCC(=O)NCCNCCN)nc31)[C@H](O)[C@@H]2O | 890 | 87.6 | 15.4 | 33 | – | –
CNC(=O)[C@]12C[C@@H]1[C@@H](n1cnc3c(NCc4cccc(Cl)c4)nc(C#CCCC(=O)NCCCCN)nc31)[C@H](O)[C@@H]2O | 766 | 102 | 2.1 | 30 | – | fold change (FC) [10]: > 5000; Ki [9]: 8.68 nM; fold change (FC) [11]: 360
CNC(=O)[C@]12C[C@@H]1[C@@H](n1cnc3c(NC4CCCC4)nc(Cl)nc31)[C@H](O)[C@@H]2O | – | 101 | – | – | – | –
CNC(=O)[C@]12C[C@@H]1[C@@H](n1cnc3c(NCc4cccc(Cl)c4)nc(C#CCCC(=O)NCCCN)nc31)[C@H](O)[C@@H]2O | 979 | 97.9 | 3.1 | 31 | – | –
CNC(=O)[C@]12C[C@@H]1[C@@H](n1cnc3c(NCc4cccc(Cl)c4)nc(C#CCCCC(=O)NCCN)nc31)[C@H](O)[C@@H]2O | – | – | 2.17 | – | 81 | Ki [7]: 454 nM
CNC(=O)[C@]12C[C@@H]1[C@@H](n1cnc3c(NCc4cccc(Cl)c4)nc(C#CCCCC(=O)OC)nc31)[C@H](O)[C@@H]2O | – | – | – | – | 49 | Ki [7]: 482 nM
CNC(=O)[C@]12C[C@H]1[C@@H](n1cnc3c(NCc4cccc(Cl)c4)nc(C#CCCC(=O)NCCN)nc31)[C@@H](O)[C@H]2O | – | 25.6 | – | – | 8 | inhibition [12]: 33%; inhibition [13]: 30%
